Legend:
Format in all cases: in vivo
[1] = system: Aedes aegypti strain Orlando (sensitive); experiment: Topical toxicity (24 hour mortality), Ae. aegypti Orlando; conditions: topical application, 24 h mortality, female adults, susceptible Orlando strain
Method: (§1) The Aedes aegypti strains Orlando (sensitive) as well as the Puerto Rico (PR, resistant to permethrin) were used. The Anopheles gambiae (G3 sensitive strain, as well as Akron kdr (Akdr) strain, resistant to pyrethroids were also assessed. The larvae were provided by the USDA, Gainesville Fl, and raised in a pan with tap water maintained at 28° C. Larvae were fed a ground liver and yeast mixture, and pupae were placed in emergence cages. Adults were held at 28° C. and provided with cotton balls soaked in 10% sugar water for rearing and for all bioassays.
(§2) Female adults from 3 to 6 days were used for the experiments. The drug was dissolved in ethanol and then applied with a micro-applicator on the thorax, between the legs: 200 nL of drug per female mosquito, with different concentrations of the drug; 10 mosquitos were treated together per concentration per replicate, and put together in a small container with free access to sweet water. Mortality, i.e. no visible movement, was assessed 24 hours after treatment. Every compound was assessed on at least 3 different cohorts of mosquitoes, and the LD50 values and slopes were determined with Probit analysis, corrected with Abbott's formula.

[2] = system: Anopheles gambiae G3 sensitive strain; experiment: Topical toxicity (24 hour mortality), An. gambiae G3; conditions: topical application, 24 h mortality, female adults, susceptible strain G3
Method: as §1, §2

[3] = system: Anopheles gambiae Akron kdr (Akdr) strain, resistant to pyrethroids; experiment: Topical toxicity (24 hour mortality), An. gambiae Akdr; conditions: for An. gambiae RR (resistance ratio): 24 h LD50 resistant strain (AKDR)/24 h LD50 susceptible strain (G3); for An. gambiae AKDR LD50: topical application, 24 h mortality, female adults, pyrethroid-resistant Akdr strain
Method: as §1, §2

[4] = system: Aedes aegypti mosquitoes, insecticide-susceptible Orlando strain; conditions: for 1 h % Repellency, 100 μg/cm^2: screened at 100 μg/cm^2, strain not given
Method: The tubes as shown were held horizontally on the bench.
For assessing behavioral repellency (FIG. 1), Aedes aegypti mosquitoes were used from the insecticide-susceptible Orlando strain and the pyrethroid-resistant Puerto Rico strain. Sixteen female mosquitoes were transferred to a glass tube (12.5 cm long, 2.5 cm outer diameter) with the ends covered with netting. Each compound was dissolved in 1 mL of acetone and serial dilutions ranging from 30-0.01 μg/ml were made. Circular filter papers (5 cm^2) were saturated with 50 μL of each concentration and allowed 10 min for solvent evaporation. The filter papers were then placed in clear conical polypropylene caps and fixed to the end of the glass tubes. The netting prevented mosquito contact with the filter paper. The tubes were then aligned with a mark denoting the midline and the proportion of mosquitoes on the chemically treated side was scored for up to 60 min. At the end of the test, the tube was placed in a cage and the ability of the mosquitoes to fly out of the tube was assessed for 30 min. […] This post-test evaluated whether any non-responding mosquitoes (not repelled) resulted from intoxication or disorientation from the test chemical. For assessment of lethality, insects were held for 24 hr under constant exposure in glass tubes having treated filter papers.
Compounds were first screened at 100 μg/cm^2 for repellency and 24 h mortality.

Compound | Ae. aegypti OR LD50 [1] | An. gambiae G3 LD50 [2] | An. gambiae RR (resistance ratio) [3] | An. gambiae AKDR LD50 [3] | 1 h % Repellency, 100 μg/cm^2 [4] | vapor repellency / mortality, statement in words (Example 8) ([4]; structure-activity analysis of Table 2)
O=C(Nc1cc(Cl)nc(C(F)(F)F)c1)C(F)F [GMR034] | 1454 ng/mg | 20.8 ng/mg | 1.1 | 23.8 ng/mg | – | –
O=C(Nc1cc(Cl)nc(C(F)(F)F)c1)C(F)(F)F [GMR035] | 106 ng/mg | 30.5 ng/mg | 1.7 | 52.1 ng/mg | – | –
O=C(Nc1cc(Cl)nc(C(F)(F)F)c1)C(F)(F)C(F)(F)F [GMR036] | 25 ng/mg | 13.5 ng/mg | 0.7 | 10.0 ng/mg | – | –
O=C(Nc1cc(Cl)nc(C(F)(F)F)c1)C(F)(F)C(F)(F)C(F)(F)F [GMR037, N-(2-chloro-6-(trifluoromethyl)pyridin-4-yl)-2,2,3,3,4,4,4-heptafluorobutanamide] | 17 ng/mg | 6.5 ng/mg | 0.8 | 5.3 ng/mg | – | –
O=C(Nc1cc(Br)nc(Br)c1)C(F)F [GMR039] | 2253 ng/mg | 20.8 ng/mg | 1.1 | 23.8 ng/mg | – | –
O=C(Nc1cc(Br)nc(Br)c1)C(F)(F)F [GMR040] | 1223 ng/mg | >100 ng/mg | – | >100 ng/mg | – | –
O=C(Nc1cc(Br)nc(Br)c1)C(F)(F)C(F)(F)F [GMR041] | 50 ng/mg | ~100 ng/mg | – | ~100 ng/mg | – | –
O=C(Nc1cc(Br)nc(Br)c1)C(F)(F)C(F)(F)C(F)(F)F [GMR042] | 24 ng/mg | 11.4 ng/mg | 0.4 | 4.7 ng/mg | – | –
O=C(Nc1cc(F)nc(F)c1)C(F)F [GMR043] | 2480 ng/mg | >100 ng/mg | – | >100 ng/mg | – | –
O=C(Nc1cc(F)nc(F)c1)C(F)(F)F [GMR044] | 1996 ng/mg | >100 ng/mg | – | >100 ng/mg | – | –
O=C(Nc1cc(F)nc(F)c1)C(F)(F)C(F)(F)F [GMR045] | 302 ng/mg | >100 ng/mg | – | >100 ng/mg | – | –
O=C(Nc1cc(F)nc(F)c1)C(F)(F)C(F)(F)C(F)(F)F [GMR046] | 300 ng/mg | >100 ng/mg | – | >100 ng/mg | – | –
Cc1cc(NC(=O)C(F)F)cc(C)n1 [GMR047] | >3000 ng/mg | >100 ng/mg | – | >100 ng/mg | – | –
Cc1cc(NC(=O)C(F)(F)F)cc(C)n1 [GMR048] | >1500 ng/mg | >100 ng/mg | – | >100 ng/mg | – | –
Cc1cc(NC(=O)C(F)(F)C(F)(F)F)cc(C)n1 [GMR049] | >3000 ng/mg | >100 ng/mg | – | >100 ng/mg | – | –
Cc1cc(NC(=O)C(F)(F)C(F)(F)C(F)(F)F)cc(C)n1 [GMR050] | >3000 ng/mg | >100 ng/mg | – | >100 ng/mg | – | –
O=C(Nc1cc(Cl)nc(Cl)c1)C(F)(F)C(F)(F)C(F)(F)C(F)(F)C(F)(F)F [GMR051] | 23.4 ng/mg | 5.2 ng/mg | 0.7 | 3.7 ng/mg | – | –
O=C(CCCC(F)(F)F)Nc1cc(Cl)nc(Cl)c1 [GMR052] | 2743 ng/mg | >100 ng/mg | – | >100 ng/mg | – | –
O=C(Nc1cc(Cl)nc(Cl)c1)C(Cl)(Cl)Cl [GMR059] | 866 ng/mg | – | – | – | – | –
O=C(Nc1ccccn1)C(F)(F)C(F)(F)C(F)(F)F [GMR060] | 1758 ng/mg | – | – | – | – | –

Compound | Ae. aegypti OR LD50 [1] | An. gambiae G3 LD50 [2] | An. gambiae RR (resistance ratio) [3] | An. gambiae AKDR LD50 [3] | 1 h % Repellency, 100 μg/cm^2 [4] | vapor repellency / mortality, statement in words (Example 8) ([4]; structure-activity analysis of Table 2)
CCCCCC(=O)Nc1c(F)c(F)nc(F)c1F [GMR065] | 1225 ng/mg | – | – | 1225 ng/mg | – | –
O=C(Nc1ccnc(Cl)c1)C(F)(F)C(F)(F)C(F)(F)C(F)(F)C(F)(F)F [GMR068] | 3425 ng/mg | – | – | 3425 ng/mg | – | –
O=C(Nc1ccnc(C(F)(F)F)c1)C(F)(F)C(F)(F)C(F)(F)C(F)(F)C(F)(F)F [GMR070] | 1261 ng/mg | – | – | 1261 ng/mg | – | –
COc1cc(NC(=O)C(F)(F)C(F)(F)C(F)(F)C(F)(F)C(F)(F)F)ccn1 [GMR071] | >2000 ng/mg | – | – | – | – | –
O=C(Nc1cc(F)nc(F)c1)C(F)(F)C(F)(F)C(F)(F)C(F)(F)C(F)(F)F [GMR072] | 114 ng/mg | 11.00 ng/mg | 1.5 | 17 ng/mg | – | –
Cc1cc(NC(=O)C(F)(F)C(F)(F)C(F)(F)C(F)(F)C(F)(F)F)cc(C)n1 [GMR073] | >3000 ng/mg | – | – | – | – | –
O=C(Nc1c(Cl)c(Cl)nc(Cl)c1Cl)C(F)(F)C(F)(F)C(F)(F)F [GMR074] | 29 ng/mg | 11.00 ng/mg | 0.8 | 8.6 ng/mg | – | –
O=C(Nc1cc(Cl)cc(Cl)n1)C(F)(F)C(F)(F)C(F)(F)F [GMR078] | 5668 ng/mg | – | – | >100 ng/mg | – | –
O=C(Nc1ccc(Cl)cn1)C(F)(F)C(F)(F)C(F)(F)F [GMR079] | >1000 ng/mg | – | – | >100 ng/mg | – | –
O=C(Nc1ncc(C(F)(F)F)cc1Cl)C(F)(F)C(F)(F)C(F)(F)F [GMR080] | >1000 ng/mg | – | – | >100 ng/mg | – | –
O=C(Nc1c(F)c(F)nc(F)c1F)C(F)(F)F [GMR081] | 698 ng/mg | – | – | >100 ng/mg | – | –
O=C(Nc1cc(Cl)nc(Cl)c1)C(F)(F)C(F)(F)OC(F)(F)F [GMR084] | 17.8 ng/mg | 6.04 ng/mg | 1.8 | 11.00 ng/mg | – | –
O=C1C2=C(CCCC2)C(=O)N1COC(=O)C(F)(F)C(F)(F)C(F)(F)F [GMR096] | 2538 ng/mg | >100 ng/mg | – | – | – | –
CC(C)(C)OC(=O)N(C(=O)C(F)(F)F)c1cc(Cl)nc(Cl)c1 [GMR119] | 343 ng/mg | – | – | – | – | –
CC(C)CC(=O)Nc1cc(Cl)nc(Cl)c1 [GMR145] | 775 ng/mg | – | – | – | – | –
CCCC(=O)Nc1cccc(OC(F)(F)F)c1 [GMR162] | – | >1000 ng/mg | – | >1000 ng/mg | 50% | –
CCCC(=O)N(C(=O)CCC)c1cccc(OC(F)(F)F)c1 [GMR163] | – | >1000 ng/mg | – | >1000 ng/mg | 50% | –
CC(=O)N(C(C)=O)c1ccccc1OC(F)(F)F [GMR169] | – | >1000 ng/mg | – | >1000 ng/mg | 82% | –
O=C(Nc1cc(Cl)nc(Cl)c1)C(C(F)(F)F)C(F)(F)F [GMR174] | 500 ng/mg | – | – | – | – | –
O=C(CSC(F)(F)F)Nc1cc(F)c(F)c(F)c1 [GMR177] | 220 ng/mg | – | – | – | 30% | poor activity
